Measurements from patent publication US10179801B2, “Truncated LYP-1 peptides and methods and compositions using truncated LYP-1 peptides” (SANFORD-BURNHAM MEDICAL RESEARCH INSTITUTE, priority 2011, dated 2019).
Entries after “also recorded” stand apart in the source; their conditions may differ. Each block holds one substance with its values, some of them ahead of it. Ends that are not written are not given here. * marks the point of attachment. Biotin = O=C1N[C@H]2[C@H](CS[C@H]2CCCCC(=O)*)N1

Columns and labels:
tumor [1] = details: CGKRK by itself; cited from earlier work
NRP1 = molecular target: T1, NRP1 (Homo sapiens, UniProt O14786); assay: Phage binding to DU145 cells with ligand-blocking anti-NRP1; type: cell-based; details: 4° C.
T1 construct: endogenous in cells; host or cells: DU145 prostate carcinoma cells
Method: To measure phage binding on cells, 2×10^5 suspended cells were incubated with 7×10^8 pfu/mL of T7 phage in DMEM/BSA 1% for 1 h at 4° C. Ligand-blocking antibodies or control goat IgG isotype (10 μg/sample) were added 30 min prior to phage incubation. The cells were washed four times with DMEM/BSA 1%, and lysed with lysogeny broth containing 1% Nonidet P-40 (LB/NP40) before phage titration.
The role of the CendR motif in the LyP-1 peptide was investigated by testing the binding of phage displaying the predicted active CendR fragment CGNKRTR (tLyP-1 for truncated LyP-1; SEQ ID NO:4) and other truncated forms of LyP-1 to cultured tumor cells. DU145 prostate carcinoma cells were used, which express NRP1, but not NRP2 (FIG. 6). As these peptides could have other receptors on the DU145 cells, inhibition of cell binding by a function-blocking anti-NRP1 antibody was used as an indicator of NRP1 dependence of phage binding. […] This is supported by recent modeling studies showing that glycine-containing peptides (G7 (SEQ ID NO:104), G3RG3 (SEQ ID NO:105), and G4RG2 SEQ ID NO:106) were able to dock in NRP1 binding pocket without major deformation of the receptor structure (Haspel et al, 2011).

p32 [2] = molecular target: T2, p32 (Homo sapiens, UniProt Q07021); assay: ELISA-based saturation assay of FAM-peptides on purified p32; type: binding; details: wells coated with 3 μg/mL p32, 37° C. 1 h
T2 sequence (Q07021 74-282): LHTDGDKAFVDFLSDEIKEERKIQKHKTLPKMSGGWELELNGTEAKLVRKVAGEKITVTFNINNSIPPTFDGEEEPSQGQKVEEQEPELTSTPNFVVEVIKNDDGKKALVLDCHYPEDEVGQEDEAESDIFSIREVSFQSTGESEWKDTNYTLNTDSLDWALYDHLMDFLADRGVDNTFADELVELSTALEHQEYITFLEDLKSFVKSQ
Method: Binding of FAM-tLyP-1 and FAM-LyP-1 to p32 was measured by an ELISA-based assay. Microtiter wells coated with 3 μg/mL of purified p32 (Fogal et al, 2008) were incubated with increasing concentrations of FAM-peptides at 37° C. for 1 h. After washing with cold PBS added with 0.01% Tween 20 and 0.2 M NaCl, fluorescence was read at 495 nm.
(§1) The MDA-MB-435 cells express the cell surface LyP-1 primary receptor p32 (Fogal et al, 2008). To test whether internalization of tLyP-1 and LyP-1 could occur through this receptor, tLyP-1 capacity to bind p32 was explored. […] Thus, only the intact LyP-1 peptide binds to p32.

tumor [3] = assay: Tumor penetration of a compound co-administered with tLyP-1; type: in vivo; details: tLyP-1 peptide injected together with CGKRK; confocal microscopy
Text: Thus, tLyP-1 can also induce penetration of a co-administered compound.

p32 [4] = molecular target: T3, p32 (Mus musculus, UniProt O35658); assay: Affinity chromatography of 4T1 breast tumor extracts on tLyP-1; type: binding; details: data not shown
T3 construct: from tissue; host or cells: 4T1 breast tumor extracts (orthotopic tumors in BALB/c mice)
T3 sequence (O35658 71-278): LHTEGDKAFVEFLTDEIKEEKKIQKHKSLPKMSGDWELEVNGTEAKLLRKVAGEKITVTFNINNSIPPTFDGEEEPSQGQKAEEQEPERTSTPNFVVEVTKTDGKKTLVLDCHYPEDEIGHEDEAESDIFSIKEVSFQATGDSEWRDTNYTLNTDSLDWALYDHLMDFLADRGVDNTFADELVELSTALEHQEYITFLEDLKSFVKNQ
Text: as §1

4T1 tumors = assay: FAM-peptide homing in 4T1 tumor bearing mice; type: in vivo, BALB/c mice; details: i.v., 1 h circulation
Method: To produce 4T1 tumors, BALB/c mice were orthotopically injected into the mammary fat pad with 10^6 cells suspended in 100 μL of PBS. To produce MDA-MB-435 breast tumors, BALB/C athymic nude mice were orthotopically injected into the mammary fat pad with 2×10^6 cells suspended in 100 μL of PBS.
4T1 tumor bearing BALB/c mice and MDA-MB-435 tumor bearing nude mice were intravenously injected with respectively 150 μL and 100 μL of 1 mM FAM-labeled synthetic peptides. After 1 h circulation, mice were perfused and tissues were collected and observed under UV light (Illuma—tool Bright Light System LT-9900) and processed for immunofluorescence analysis.
150 μl of 1 mM FAM-tLyP-1 or control FAM-[…] was intravenously injected into 4T1 tumor bearing mice. The peptides were allowed to circulate for 1 h and tumors and organs were collected and viewed under UV light. […] FAM-tLyP-1 (100 μl of 1 mM) was intravenously injected into MDA-MB-435 tumor bearing mice. The peptide was allowed to circulate for 45 min, and tumor and organs were collected and viewed under UV light. […] Confocal microscope images were made of the tumor and of normal organs after 1 h of FAM-tLyP-1 circulation in 4T1 tumor bearing mice.

PPC1 cells = assay: Phage binding and internalization into PPC1 cells (confocal microscopy); type: cell-based, human; details: 30 min pre-incubation, increasing concentrations, phage 2 h
Method: (§2) Cells were grown on collagen I-coated coverslips (BD Biosciences) for 24-72 h. After 4% PFA fixation, cells were stained with antibodies following the same procedure as for tumor sections, and mounted in DAPI-containing mounting media. For phage binding assay, 10^9 pfu of phage in cell culture medium were incubated for 1-2 h. When neutravidin-peptide inhibitors were used, they were added to the cell medium 30 min prior to phage incubation. Neutravidin alone, at the maximum concentration used in the assay, was used as a control. Cells were examined on a Fluoview 500 confocal microscope (Olympus America).
Phage were detected by staining with anti-T7 phage polyclonal antibody. Nuclei were stained with DAPI. […] Cells were co-stained for NRP1 and nuclei were stained with DAPI. […] Non-conjugated neutravidin was used as a control. Nuclei were stained with DAPI. Cells were analyzed by confocal microscopy.

MDA-MB-435 cells = assay: Phage binding and internalization into MDA-MB-435 cells (confocal microscopy); type: cell-based, human; details: 30 min pre-incubation, increasing concentrations, phage 2 h
Method: as §2
Cells were co-stained for NRP2 and nuclei were stained with DAPI. […] Non-conjugated neutravidin was used as a control. Nuclei were stained with DAPI.
Having established that tLyP-1, but not LyP-1, binds to NRP1 and NRP2, but both peptides internalize into tumor cells, it was realized that LyP-1 is converted into tLyP-1 and that the two peptides are taken up by cells through the CendR pathway. The effect of an excess of tLyP-1 on LyP-1 internalization was tested. […] After 30 min pre-incubation with increasing concentrations of neutravidin-tLyP-1 peptide, MDA-MB-435 cells were incubated with LyP-1 phage for 2 h. Phage were stained with anti-T7 antibody. Nuclei were stained with DAPI.

T1 sequence (O14786 22-923): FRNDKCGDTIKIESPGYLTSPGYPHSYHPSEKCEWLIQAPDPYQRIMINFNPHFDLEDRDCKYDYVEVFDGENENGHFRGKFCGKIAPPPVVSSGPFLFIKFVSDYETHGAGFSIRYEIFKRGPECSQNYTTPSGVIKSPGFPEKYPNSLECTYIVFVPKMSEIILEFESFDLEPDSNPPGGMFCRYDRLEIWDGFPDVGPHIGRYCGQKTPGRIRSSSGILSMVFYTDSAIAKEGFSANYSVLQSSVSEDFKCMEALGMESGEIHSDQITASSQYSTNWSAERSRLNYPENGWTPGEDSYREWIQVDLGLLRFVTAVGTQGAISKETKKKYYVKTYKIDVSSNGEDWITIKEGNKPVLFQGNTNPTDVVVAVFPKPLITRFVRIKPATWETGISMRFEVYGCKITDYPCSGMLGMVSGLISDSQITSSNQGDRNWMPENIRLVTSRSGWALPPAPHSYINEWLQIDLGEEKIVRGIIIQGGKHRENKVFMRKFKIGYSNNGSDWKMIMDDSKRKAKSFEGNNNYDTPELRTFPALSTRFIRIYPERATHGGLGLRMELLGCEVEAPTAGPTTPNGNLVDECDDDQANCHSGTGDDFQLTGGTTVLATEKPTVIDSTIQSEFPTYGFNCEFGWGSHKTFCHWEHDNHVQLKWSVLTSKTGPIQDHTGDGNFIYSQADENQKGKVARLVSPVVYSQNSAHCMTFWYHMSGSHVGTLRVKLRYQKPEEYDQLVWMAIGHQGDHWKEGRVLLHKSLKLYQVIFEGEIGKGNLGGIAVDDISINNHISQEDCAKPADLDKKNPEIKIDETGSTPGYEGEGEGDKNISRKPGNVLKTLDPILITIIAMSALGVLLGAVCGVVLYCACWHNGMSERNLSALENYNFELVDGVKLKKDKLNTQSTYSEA

Substance: CGKRK [tumor-homing peptide]
Exit from blood vessels of peptide alone (tumor [1]): unable to get out of blood vessels by itself

Substance: CGNK
Effect of ligand-blocking anti-NRP1 on phage binding to DU145 cells (in words) (NRP1): not enough to confer significant ability to bind to NRP1

Substance: CGNKR
Effect of ligand-blocking anti-NRP1 on phage binding to DU145 cells (in words) (NRP1): not enough to confer significant ability to bind to NRP1

Binding to purified p32 (p32 [2]): low binding
Binding of p32 from tumor extract to peptide affinity matrix (p32 [4]): no binding of p32
Substance: CGNKRTR [tLyP-1, truncated form of LyP-1, in which CendR motif is exposed]
Tumor penetration of co-injected CGKRK (tumor [3]): enhanced tumor penetration of CGKRK

Effect of ligand-blocking anti-NRP1 on phage binding to DU145 cells (in words) (NRP1): mild reproducible decrease
Substance: CGNKRTRG

Substance: FAM-ARALPSQRSR: control peptide, fluorescein-labeled ARALPSQRSR (not fully specified; fluorescein label)
Tumor fluorescence / accumulation of FAM-peptide (4T1 tumors): did not accumulate in the tumors; also recorded: absence of fluorescence

Substance: oligomeric RPARPAR peptide: tetrameric biotinylated RPARPAR peptide conjugated with neutravidin (Biotin-RPARPAR; not fully specified (C-terminus); also: tetrameric, biotinylated, conjugated with neutravidin)
Inhibition of tLyP-1 phage internalization into PPC1 cells (PPC1 cells): inhibited in a dose-dependent manner
Inhibition of tLyP-1 phage binding and internalization in MDA-MB-435 cells (MDA-MB-435 cells): blocked the binding and internalization
